pIC50: −log10 of the molar value.
Experiments:
MM1s cells [1] = experiment: Drug survival of MM1s cells in mono- or multi-culture in classic 2D cultures and 3DTEBM, by flow cytometry; assay type: cell-based; settings: Homo sapiens, MM1.S, 24 h
Description: MM1s-GFP cells (30×10^3 cells/well) were cultured in mono-culture or multi-culture conditions [CD138^− stromal cells-DiD (10×10^3 cells/well), HUVECs-DiD (10×10^3 cells/well), and fibronectin 100 ng/ml)] in 3DTEBM and classic 2D cultures. After 2 h gelification of 3DTEBM or adhesion in 2D cultures (cells were culture in 50 μl), 50 ul of RPMI completed media was added on top of 3DTEBM. Then, 50 μl of bortezomib (0-30 nM), carfilzomib (0, 10 nM), or melphalan (0, 1 μM) solutions were added on top of 2D cultures and 3DTEBM for 24 h. Cell proliferation assay was assessed by flow cytometry as previously described. Briefly, drug-media was removed, 3DTEBM were digested and cells of 2D cultures detached by pipetting. Effect of drug treatment in MM1s-GFP cells was measured and normalized to non-treated conditions.
Finally, the effect of increasing concentrations of bortezomib on the survival of MM1s cells grown in mono-culture or multi-culture in 3DTEBM and 2D cultures was measured.

MM1s cells [2] = experiment: Effect of ECM component fibronectin on growth of MM cells inside 3DTEBM, by flow cytometry; assay type: cell-based; settings: 100 ng/ml, day 3
Description: For flow cytometry analysis, an internal control (MM1s-calcein violet) was added and a minimum of 5,000 events were acquired using BD FACS Aria (BD Biosciences) and DiVa v6.1.2 software. The data was analyzed using FlowJo program v10 (Ashland, Oreg.). MM cells or CD138^+ cells were identified by gating cells with a high GFP/DiO signal (excitement, 488 nm; filter, 530/30 nm); Hs5 stroma or CD138-stromal cells were identified by gating cells with a high DiD signal (excitement, 638 nm; filter, 660/20 nm); HUVECs were identified by gating cells with a high DiI signal (excitement, 488 nm; filter, 585/15 nm); and MM1s cells control were identified by gating cells with a high UV signal (excitement, 355 nm; filter, 450/50 nm). A 3DTEBM was digested with type I collagenase at 25 mg/ml for 2 h at 37° C. Classic bi-dimensional (2D) cultures were washed with PBS and removed by pipetting. The effect of cell density (5×10^3-50×10^3 cells/well) of MM1s-GFP, Hs5 stroma-DiD, CD138− stromal cells-DiD, and HUVECs-DiI on growth rate in mono-cultures at day 3 inside 3DTEBM was measured by flow cytometry. […]

Compound | pIC50 (MM1s cells [1]; 3DTEBM mono-culture) | pIC50 (MM1s cells [1]; 3DTEBM multi-culture (CD138- stromal cells, HUVECs, fibronectin)) | pIC50 (MM1s cells [1]; classic 2D mono-culture) | pIC50 (MM1s cells [1]; classic 2D multi-culture (CD138- stromal cells, HUVECs, fibronectin)) | increase of growth of MM cells in 3DTEBM (MM1s cells [2])
CC(C)C[C@H](NC(=O)[C@H](Cc1ccccc1)NC(=O)c1cnccn1)B(O)O [bortezomib] | 7.70 to 7.82 | ~7.60 | ~8.30 | ~8.15 | 
fibronectin |  |  |  |  | about 25%

From patent publication US10463764B2, “3D tissue-engineered bone marrow for personalized therapy and drug development” (Washington University, priority 2014, dated 2019)
